Reference: US4370489A, “Herbicidal compounds” (Hoechst Aktiengesellschaft, priority 1976, dated 1983)

What was measured:
Avena fatua [1] = assay: Post emergence treatment in two stages, boxes on a site without roof, wild oat (Table III); type: in vivo; settings: start of tillering, 0.9 kg/hectare
Procedure: (§1) The results and also the results of all following examples were evaluated 4 weeks later according to the following scheme:
(§2) Effect on wild oat and sugar beet
(§3) Post emergence treatment in two stages of development
(§4) boxes 20 × 24 × 22 cm in size on a site without roof

sugar beet = assay: Post emergence treatment in two stages, boxes on a site without roof, sugar beet (Table III); type: in vivo; settings: 0.9 kg/hectare
Procedure: as §1, §2, §3, §4

Avena fatua [2] = assay: Post-emergence treatment, pots on a site without roof, Avena fatua (Example IV, Table IV); type: in vivo; settings: for Effect (evaluation scheme), Avena fatua: post-emergence, emulsion concentrate
Procedure: as §1
(§5) In summer a further experiment was carried through under similar conditions to compare the effect of compound 1a with that of comparative compound A. Both compounds were used in the form of an emulsion concentrate (Table IV).
(§6) Post-emergence treatment (evaluation scheme); experiment
(§7) in pots on a site without roof

Avena ludoviciana = assay: Post-emergence treatment, pots on a site without roof, Avena ludoviciana (Example IV, Table IV); type: in vivo; settings: for Effect (evaluation scheme), Avena ludoviciana: post-emergence, emulsion concentrate
Procedure: as §1, §5, §6, §7

Alopecurus myos. = assay: Post-emergence treatment, pots on a site without roof, blackgrass (Example IV, Table IV); type: in vivo, annual black-grass (Alopecurus); settings: for Effect (evaluation scheme), Alopecurus myos.: post-emergence, emulsion concentrate
Procedure: as §1, §5, §6, §7

spring wheat = assay: Post-emergence treatment, pots on a site without roof, spring wheat (Example IV, Table IV); type: in vivo; settings: emulsion concentrate; further: ranges in brackets are in %
Procedure: as §1, §5, §6, §7

spring barley = assay: Post-emergence treatment, pots on a site without roof, spring barley (Example IV, Table IV); type: in vivo; settings: emulsion concentrate; further: ranges in brackets are in %
Procedure: as §1, §5, §6, §7

Digitaria = assay: Pre-emergence greenhouse pot trial, Digitaria (Example V, Table V); type: in vivo
Procedure: as §1
(§8) In a greenhouse the compounds to be tested were sprayed on the surface of the soil directly after sowing. […] Dicotyledonous crop plants (the same as used in Example I) were not damaged by the applied amounts.
(§9) Effect on weed grasses in a pre-emergence process (evalua-
(§10) tion scheme) experiment in pots in the greenhouse.

Echinochloa = assay: Pre-emergence greenhouse pot trial, Echinochloa (Example V, Table V); type: in vivo
Procedure: as §1, §8, §9, §10

Lolium = assay: Pre-emergence greenhouse pot trial, Lolium (Example V, Table V); type: in vivo
Procedure: as §1, §8, §9, §10

Setaria = assay: Pre-emergence greenhouse pot trial, Setaria (Example V, Table V); type: in vivo
Procedure: as §1, §8, §9, §10

weed grasses = assay: Pre-emergence greenhouse pot trial, weed grasses overall (Example V); type: in vivo; settings: in words
Procedure: as §1, §8, §9, §10

wild oat [3] = assay: Field trial in wild oat, post-emergence treatment (Example VI, Table VI); type: in vivo; settings: for efficiency in % (counting of panicles) / evaluation 5 weeks after treatment: post-emergence
Procedure: In a field trial compound 1a of the invention was sprayed in the form of a 36% wettable powder formulation onto wild oat (single system, natural growth) after the plants had developed 3 or 4 leaves.
Three lots each were treated with different concentrations of the active compound and the comparative compound, the amount of spray liquor applied being 600 liters per hectare. Besides the usual visual evaluation at the end of the trial, the number of panicles per square meter was counted. In the untreated lots 400 to 500 panicles were counted per square meter, i.e. the field was heavily infected.
The relations are still more distinct when the amount of active compound required for a 90% effect is determined by the probit method (graphical evaluation) mentioned in Example II.

wild oat [4] = assay: Post-emergence trial in the greenhouse, wild oat (Example VII, Table VII); type: in vivo; settings: 31 kg/hectare, emulsion concentrate, 4 weeks after treatment
Procedure: as §1
In a greenhouse some of the compounds of the invention were sprayed on plants of wild oat, the compounds being used as emulsion concentrates.
Post-emergence trial in the greenhouse
Effect on wild oat 4 weeks after treatment
Dose 31 kg/hectare of active compound (as emulsion

COC(=O)C(C)Oc1ccc(Oc2ccc(Br)cc2Cl)cc1 (stereo not drawn) [Compound 1a, Methyl-4-(2'-chloro-4'-bromophenoxy)-α-phenoxy-propionate]
degree of damage % (evaluation by weight), Avena fatua (Avena fatua [1]): 96%
sugar beet number (sugar beet; 2-leaf stage): 2 (0 to 2.5)
sugar beet number (sugar beet; 4-leaf stage): 2 (0 to 2.5)
Effect (evaluation scheme), Avena fatua (Avena fatua [2]; 0.225 kg/hectare): 7 (65.0 to <75.0)
Effect (evaluation scheme), Avena fatua (Avena fatua [2]; 0.45 kg/hectare): 6 (75.0 to <85.0)
Effect (evaluation scheme), Avena fatua (Avena fatua [2]; 0.9 kg/hectare): 5 (85.0 to <90.0)
effect on Avena fatua compared with comparative compound (Avena fatua [2]; in words): distinctly better effect than the comparative compound
Effect (evaluation scheme), Avena ludoviciana (Avena ludoviciana; 0.225 kg/hectare): 6 (75.0 to <85.0)
Effect (evaluation scheme), Avena ludoviciana (Avena ludoviciana; 0.45 kg/hectare): 5 (85.0 to <90.0)
Effect (evaluation scheme), Avena ludoviciana (Avena ludoviciana; 0.9 kg/hectare): 4 (90.0 to <95.0)
effect on Avena ludoviciana compared with comparative compound (Avena ludoviciana; in words): distinctly better effect than the comparative compound
Effect (evaluation scheme), Alopecurus myos. (Alopecurus myos.; 0.225 kg/hectare): 5 (85.0 to <90.0)
Effect (evaluation scheme), Alopecurus myos. (Alopecurus myos.; 0.45 kg/hectare): 3 (95.0 to <.97.5)
Effect (evaluation scheme), Alopecurus myos. (Alopecurus myos.; 0.9 kg/hectare): 1 (100)
response of annual black-grass (Alopecurus) (Alopecurus myos.; in words): responded very well
evaluation scheme, spring wheat (spring wheat; 0.225 kg/hectare): 1 (0)
evaluation scheme, spring wheat (spring wheat; 0.45 kg/hectare): 1 (0)
evaluation scheme, spring wheat (spring wheat; 0.9 kg/hectare): 1 (0)
evaluation scheme, spring barley (spring barley; 0.225 kg/hectare): 1 (0)
evaluation scheme, spring barley (spring barley; 0.45 kg/hectare): 1 (0)
evaluation scheme, spring barley (spring barley; 0.9 kg/hectare): 1 (0)
Effect on weed grasses (evaluation scheme), Digitaria (Digitaria; 0.62 kg/hectare): 4 (90.0 to <95.0)
Effect on weed grasses (evaluation scheme), Digitaria (Digitaria; 1.25 kg/hectare): 2 (97.5 to <100)
Effect on weed grasses (evaluation scheme), Echinochloa (Echinochloa; 0.62 kg/hectare): 3 (95.0 to <.97.5)
Effect on weed grasses (evaluation scheme), Echinochloa (Echinochloa; 1.25 kg/hectare): 2 (97.5 to <100)
Effect on weed grasses (evaluation scheme), Lolium (Lolium; 0.62 kg/hectare): 6 (75.0 to <85.0)
Effect on weed grasses (evaluation scheme), Lolium (Lolium; 1.25 kg/hectare): 3 (95.0 to <.97.5)
Effect on weed grasses (evaluation scheme), Setaria (Setaria; 0.62 kg/hectare): 6 (75.0 to <85.0)
Effect on weed grasses (evaluation scheme), Setaria (Setaria; 1.25 kg/hectare): 4 (90.0 to <95.0)
effect in pre-emergence treatment compared with comparative compound A (weed grasses): better effect
efficiency in % (counting of panicles) (wild oat [3]; 0.54 kg/hectare): 79.0%
evaluation 5 weeks after treatment (wild oat [3]; 0.54 kg/hectare): 7 (65.0 to <75.0)
efficiency in % (counting of panicles) (wild oat [3]; 0.72 kg/hectare): 90.0%
evaluation 5 weeks after treatment (wild oat [3]; 0.72 kg/hectare): 5 (85.0 to <90.0)
efficiency in % (counting of panicles) (wild oat [3]; 0.90 kg/hectare): 97.4%
evaluation 5 weeks after treatment (wild oat [3]; 0.90 kg/hectare): 3 (95.0 to <.97.5)
amount sufficient compared with the comparative compound (90% effect) (wild oat [3]; probit method): about 1/4
amount of active compound required for a 90% effect (wild oat [3]; without wetting agent, probit method (graphical evaluation)): 0.68 kg/hectare
effect (number) on wild oat (wild oat [4]): 1 (100)
